These are literature values, as cited in patent US20080075658A1, “Method of Radiolabeling Formulations for Gamma Scintigraphy Assessment” (priority 2006, published 2008).

As a reminder, the half-life is how long it takes for the measured level to halve.

The conditions of this series: radioactive decay of the radionuclide.

On to `[O-2].[O-2].[O-2].[Sm+3].[Sm+3]` [Sm2O3, samarium oxide], for which the half life was 46.27 h.

Regarding `[Cl-].[Cl-].[Cl-].[In+3]` [InCl2, indium chloride], the half life entry was “InCl2 half life is 67.2 hrs” and the half-life was 67.2 h.

Regarding `[Tc]` [Example 99mTc, technetium], the half life is 6.01 h.
